Data as given in patent US10100016B2, “Condensed ring derivative, and preparation method, intermediate, pharmaceutical composition and use thereof” (SHANGHAI YINGLI PHARMACEUTICAL CO., LTD., priority 2015, dated 2018).
pIC50: −log10 of the molar value.

Molecular target: hURAT1 (Homo sapiens (Human), UniProt Q96S37)
Assay: 14C-uric acid transport inhibition in transfected HEK293/hURAT1 cells
Type: cell-based
Conditions: 14C-uric acid uptake, 10 mins incubation, read-out: IC50 value against hURAT1
Experimental: Human embryonic kidney cells (HEK293) was incubated in DMEM tissue culture medium, at 37° C., under 5% CO2 and 95% air atmosphere. […] Transfected HEK293/hURAT1 cells were used to the test for ^14C-uric acid transport activity.
The uric acid [8-14C] […] The incubating solution was removed after 10 mins incubation, followed by adding 100 μL cold washing buffer, after washing with this buffer for 3 times, the buffer was completely removed from the well.

hURAT1, sequence (Q96S37 whole entry): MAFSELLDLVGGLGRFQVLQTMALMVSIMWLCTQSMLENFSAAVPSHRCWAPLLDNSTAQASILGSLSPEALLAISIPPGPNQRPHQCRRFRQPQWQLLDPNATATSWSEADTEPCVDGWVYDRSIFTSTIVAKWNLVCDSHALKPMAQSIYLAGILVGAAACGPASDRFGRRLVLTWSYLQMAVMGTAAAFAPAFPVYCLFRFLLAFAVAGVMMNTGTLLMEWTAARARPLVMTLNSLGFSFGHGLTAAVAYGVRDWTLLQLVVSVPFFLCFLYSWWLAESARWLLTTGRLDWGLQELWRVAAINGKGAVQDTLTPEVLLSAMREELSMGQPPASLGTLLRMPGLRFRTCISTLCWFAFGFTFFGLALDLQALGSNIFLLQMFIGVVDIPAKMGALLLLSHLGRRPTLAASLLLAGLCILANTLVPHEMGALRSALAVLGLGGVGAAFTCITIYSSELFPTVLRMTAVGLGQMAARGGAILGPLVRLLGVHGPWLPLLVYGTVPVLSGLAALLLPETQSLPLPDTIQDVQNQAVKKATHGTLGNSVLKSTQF

| pIC50 | SMILES |
| --- | --- |
| 7.62 | CC(CC(=O)O)c1cc2c(-c3ccc(C#N)c4ccccc34)cncc2s1 (racemic) [Compound 42, 3-[4-(4-Cyanonaphthalen-1-yl)thieno[2,3-c]pyridin-2-yl] butyric Acid] |
| 7.43 | CC(CC(=O)O)c1cc2cncc(-c3ccc(C#N)c4ccccc34)c2s1 (racemic) [Compound 52, 3-[7-(4-Cyanonaphthalen-1-yl)thieno[3,2-c]pyridine-2-yl]-butyric Acid] |
| 5.60 | N#Cc1ccc(-c2cncc3ccc(C(=O)O)cc23)cc1 [Compound 1, 4-(4-cyanophenyl)isoquinoline-6-carboxylic Acid] |
| 6.49 | N#Cc1ccc(-c2cncc3ccc(CC(=O)O)cc23)c2ccccc12 [Compound 3, 2-[4-(4-Cyanonaphthalen-1-yl)isoquinolin-6-yl]acetic Acid] |
| 6.67 | CC(C)(Oc1ccc2cncc(-c3ccc(C#N)cc3)c2c1)C(=O)O [Compound 6, 2{[4-(4-Cyanophenyl)isoquinolin-6-yl]oxy}-2-methylpropionic Acid] |
| 7.24 | CC(C)(Sc1ccc2cncc(-c3ccc(C#N)cc3F)c2c1)C(=O)O [Compound 8, 2{[4-(4-Cyano-2-fluorophenyl)isoquinolin-6-yl]thio}-2-methylpropionic Acid] |
| 6.90 | CC(C)(Sc1cc(F)c2cncc(-c3ccc(C#N)c4ccccc34)c2c1)C(=O)O [Compound 9, 2{[4-(4-Cyanonaphthalen-1-yl)-8-fluoroisoquinolin-6-yl]thio}-2-methylpropionic Acid] |
| 7.72 | CC(C)(Sc1ccc2cncc(-c3cccc4c(C#N)cccc34)c2c1)C(=O)O [Compound 10, 2{[4-(5-Cyanonaphthalen-1-yl)isoquinolin-6-yl]thio}-2-methylpropionic Acid] |
| 7.21 | CC(C)(Sc1ccc2cncc(-c3ccc(C#N)c4c3OCCO4)c2c1)C(=O)O [Compound 11, 2-{[4-(8-Cyano-2,3-dihydro-1,4-benzodioxan-5-yl)isoquinolin-6-yl]thio}-2-methylpropionic Acid] |
| 7.15 | CC(C)(Sc1ccc2cncc(-c3ccc(C#N)c4ccc(F)cc34)c2c1)C(=O)O [Compound 12, 2-{[4-(4-Cyano-7-fluoronaphthalen-1-yl)isoquinolin-6-yl]thio}-2-methyl propionic Acid] |
| 6.72 | CC(CC(=O)O)c1ccc2cncc(-c3ccc(C#N)cc3)c2c1 (centres unmarked) [Compound 13, 3-[4-(4-Cyanophenyl)isoquinolin-6-yl]butyric Acid] |
| 7.62 | CC(CC(=O)O)c1ccc2cncc(-c3ccc(C#N)c4ccccc34)c2c1 (centres unmarked) [Compound 15, 3-[4-(4-Cyanonaphthalen-1-yl)isoquinolin-6-yl]butyric Acid] |
| 7.82 | CC(Cc1ccc2cncc(-c3ccc(C#N)c4ccccc34)c2c1)C(=O)O (centres unmarked) [Compound 16, 3-[4-(4-Cyanonaphthalen-1-yl)isoquinolin-6-yl]-2-methyl propionic acid] |
| 7.92 | CC(C)(Cc1ccc2cncc(-c3ccc(C#N)c4ccccc34)c2c1)C(=O)O [Compound 17, 3-[4-(4-Cyanonaphthalen-1-yl)isoquinolin-6-yl]-2,2-dimethyl propionic Acid] |
| 7.00 | CC(Sc1ccc2cncc(-c3ccc(C#N)c4ccccc34)c2c1)C(=O)O (centres unmarked) [Compound 21, 2-{[4-(4-Cyanonaphthalen-1-yl)isoquinolin-6-yl]thio}propionic Acid] |
| 7.26 | CC(C)(Sc1ccc2cncc(-c3ccc(C#N)c(Cl)c3)c2c1)C(=O)O [Compound 22, 2-{[4-(3-Chloro-4-cyanophenyl)isoquinolin-6-yl]thio}-2-methyl propionic Acid] |
| 7.74 | CC(C)(Sc1ccc2cncc(-c3ccc(C#N)cc3Cl)c2c1)C(=O)O [Compound 23, 2-{[4-(2-Chloro-4-cyanophenyl)isoquinolin-6-yl]thio}-2-methyl propionic Acid] |
| 7.74 | N#Cc1ccc(-c2cncc3ccc(SC4(C(=O)O)CCC4)cc23)c2ccccc12 [Compound 24, 1-{[4-(4-cyanonaphthalen-1-yl)isoquinolin-6-yl]thio}cyclobutane-1-carboxylic Acid] |
| 6.92 | Cc1nn(Cc2c(Cl)cccc2Cl)c2cc(SC(C)(C)C(=O)O)ccc12 [Compound 26, 2-({1-[(2,6-dichlorophenyl)methyl]-3-methyl-1H-indazol-6-yl}thio)-2-methyl propionic Acid] |
| 5.54 | N#Cc1ccc(-c2cncc3cc(C(=O)O)sc23)c2ccccc12 [Compound 29, 7-(4-Cyanonaphthalen-1-yl)thieno[3,2-c]pyridin-2-formic Acid] |
| 5.47 | N#Cc1ccc(-c2cncc3cc(CC(=O)O)sc23)c2ccccc12 [Compound 31, 2-[7-(4-Cyanonaphthalen-1-yl)thieno[3,2-c]pyridin-2-yl]acetic Acid] |
| 5.27 | N#Cc1ccc(-c2cncc3cc(CC(=O)O)sc23)cc1 [Compound 32, 2-[7-(4-Cyanophenyl)thieno[3,2-c]pyridin-2-yl]acetic Acid] |
| 7.38 | CC(C)(Cc1cc2cncc(-c3ccc(C#N)cc3)c2s1)C(=O)O [Compound 33, 3-[7-(4-Cyanophenyl)thieno[3,2-c]pyridin-2-yl]-2,2-dimethylpropionic Acid] |
| 6.86 | CC(C)(Cc1cc2cncc(-c3ccc(C#N)c4ccccc34)c2s1)C(=O)O [Compound 34, 3-[7-(4-Cyanonaphthalen-1-yl)thieno[3,2-c]pyridin-2-yl]-2,2-dimethylpropionic Acid] |
| 5.46 | CC(C)(Cc1cc2c(Cc3c(Cl)cccc3Cl)cccc2s1)C(=O)O [Compound 40, 3-{4-[(2,6-Dichlorophenyl)methyl]-1-benzothiophen-2-yl]-2,2-dimethyl propionic Acid] |
| 6.94 | CC(C)(C(=O)O)c1ccc2cncc(-c3ccc(C#N)c4ccccc34)c2c1 [Compound 49, 2-[4-(4-Cyanonaphthalen-1-yl)isoquinolin-6-yl]-2-methyl propionic acid] |
| 6.01 | CC(C)(Sc1ccc2cnnc(-c3ccc(C#N)c4ccccc34)c2c1)C(=O)O [Compound 50, 2-{[4-(4-Cyanonaphthalen-1-yl)phthalazin-6-yl]thio}-2-methyl propionic Acid] |
| 7.72 | CC(C)(Cc1ccc2cncc(-c3ccc(C#N)cc3)c2c1)C(=O)O [Compound 51, 3-[4-(4-Cyanophenyl)isoquinolin-6-yl]-2,2-dimethyl propionic Acid] |
| 6.95 | CC(C)(Sc1ccncc1-c1ccc(C#N)c2ccccc12)C(=O)O [Verinurad (RDEA3170), reference compound] |

| SMILES | pIC50 |
| --- | --- |
| N#Cc1ccc(-c2cncc3ccc(CCC(=O)O)cc23)cc1 [Compound 2, 3-[4-(4-Cyanophenyl)isoquinolin-6-yl]propionic Acid] | 6.79 |
| CC(C)(Sc1ccc2cncc(-c3ccc(C#N)cc3)c2c1)C(=O)O [Compound 4] | 7.82 |
| N#Cc1ccc(-c2cncc3ccc(/C=C/C(=O)O)cc23)c2ccccc12 [Compound 14, (2E)-3-[4-(4-Cyanonaphthalen-1-yl)isoquinolin-6-yl]acrylic Acid] | 6.41 |
| Cc1nc(Cc2c(Cl)cccc2Cl)n2cc(CCC(=O)O)ccc12 [Compound 25, 3-{3-[(2,6-dichlorophenyl)methyl]-1-methylimidazole[1,5-a]pyridine-6-yl}propionic Acid] | 6.54 |
| CC(C)(Sc1ccc2nccn2c1-c1ccc(C#N)cc1)C(=O)O [Compound 27, 2-{[5-(4-Cyanophenyl)imidazo[1,2-a]pyridin-6-yl]thio}-2-methyl propionic Acid] | 5.76 |
| N#Cc1ccc(-c2cncc3cc(CCC(=O)O)sc23)c2ccccc12 [Compound 30, 3-[7-(4-Cyanonaphthalen-1-yl)thieno[3,2-c]pyridin-2-yl]propionic acid] | 7.06 |
| CC(C)(Cc1cc2c(-c3ccc(C#N)c4ccccc34)cccc2s1)C(=O)O [Compound 38, 3-[4-(4-Cyanonaphthalen-1-yl)-1-benzothiophen-2-yl]-2,2-dimethyl propionic Acid] | 6.68 |
| CC(O)(CC(=O)O)c1cc2c(-c3ccc(C#N)c4ccccc34)cncc2s1 (centres unmarked) [Compound 41, 3-[4-(4-Cyanonaphthalen-1-yl)thieno[2,3-c]pyridin-2-yl]-3-hydroxyl butyric Acid] | 6.03 |
| CC(C)(Cc1cc2c(-c3ccc(C#N)c4ccccc34)cncc2s1)C(=O)O [Compound 47, 3-[4-(4-Cyanonaphthalen-1-yl)thieno[2,3-c]pyridin-2-yl]-2,2-dimethyl propionic Acid] | 7.74 |
